One block for each molecule: values may come before it. The source made the active and inactive calls. No cut-off for these calls is given here.
Columns and labels:
[1] = Inhibition of human CES2A using fluorescein diacetate as substrate preincubated for 3 mins followed by substrate addition and measured after 30 mins by fluorescence microplate reader
[2] = Inhibition of human CES1A using NLMe as substrate preincubated for 3 mins followed by substrate addition and measured after 20 mins by chemiluminescence analysis
[3] = species on record: Homo sapiens; assay: Selectivity index, ratio of IC50 for inhibition of human CES1A to IC50 for inhibition of human CES2A
[4] = test system: Mus musculus; assay: Antiinflammatory activity against DSS-induced ulcerative colitis mouse model assessed as goblet cell loss at 700 mg/kg,IG administered once daily 7 days by AB-PAS staining based analysis; type: functional, organism-based; conditions: time 7.0 day
[5] = test system: Mus musculus; assay: Antiinflammatory activity against DSS-induced ulcerative colitis mouse model assessed as epithelial damage at 700 mg/kg,IG administered once daily 7 days by AB-PAS staining based analysis; type: functional, organism-based; conditions: time 7.0 day
[6] = test system: Mus musculus; assay: Antiinflammatory activity against DSS-induced ulcerative colitis mouse model assessed as restoration of colon histology at 700 mg/kg,IG administered once daily 7 days by AB-PAS staining based analysis; type: functional, organism-based; conditions: time 7.0 day

SMILES: CN(C)C(=O)C(CCN1CCC(O)(c2ccc(Cl)cc2)CC1)(c1ccccc1)c1ccccc1 [LOPERAMIDE]
IC50 [1]: 351 nM

SMILES: CCCCCCCCC(=O)c1cccc2oc(-c3cc(OC)ccc3OC(=O)N(C)CC)cc12
IC50 [1]: 0.625 nM | IC50 [2]: 4 nM | Ratio IC50 [3]: 6.4

SMILES: O=C(O)c1cc(/N=N/c2ccc(S(=O)(=O)Nc3ccccn3)cc2)ccc1O
Activity [4]: inactive | Activity [5]: inactive | Activity [6]: Active

SMILES: CCCC(=O)c1cccc2oc(-c3ccccc3N)cc12
IC50 [1]: 11100 nM

SMILES: CCCCCCC(=O)c1cccc2oc(-c3cc(OC)ccc3OC(=O)N(C)C)cc12
IC50 [1]: 0.509 nM | IC50 [2]: 22.9 nM | Ratio IC50 [3]: 44.8

Further lines, results first:

IC50 [1]: 0.542 nM | IC50 [2]: 29.2 nM | Ratio IC50 [3]: 53.9
SMILES: CCCCCCCCC(=O)c1cccc2oc(-c3cc(OC)ccc3OC(=O)N3CCOCC3)cc12

IC50 [1]: 1.55 nM
SMILES: CCCCCCC(=O)c1c(C)ccc2oc(-c3cc(OC)ccc3O)cc12

IC50 [1]: 736 nM
SMILES: CCCCCCCCC(=O)c1cccc2oc(-c3cc(C)ccc3N)cc12

From ChEMBL document CHEMBL6178015, “Discovery of a Novel Serine-Targeting Covalent Inhibitor against HCES2A for Treating Drug-induced Diarrhea and Ulcerative Colitis” (J Med Chem, 2025)
